# Test results as given in ChEMBL document CHEMBL1201862, “PubChem BioAssay data set” (2004).
# pIC50: −log10 of the molar value. Active and inactive are the calls of the source.
# How the values were obtained:
# [1] = target: T1, Short transient receptor potential channel 4 (Mus musculus, UniProt Q9QUQ5); experiment: TRPC4 inhibitor concentration-response, dose response, cell-based, HEK293 TRPC4/mu-opioid, DAMGO stimulus, Fluo-4 (AID 492994); assay type: functional
# T1 sequence (Q9QUQ5 whole entry): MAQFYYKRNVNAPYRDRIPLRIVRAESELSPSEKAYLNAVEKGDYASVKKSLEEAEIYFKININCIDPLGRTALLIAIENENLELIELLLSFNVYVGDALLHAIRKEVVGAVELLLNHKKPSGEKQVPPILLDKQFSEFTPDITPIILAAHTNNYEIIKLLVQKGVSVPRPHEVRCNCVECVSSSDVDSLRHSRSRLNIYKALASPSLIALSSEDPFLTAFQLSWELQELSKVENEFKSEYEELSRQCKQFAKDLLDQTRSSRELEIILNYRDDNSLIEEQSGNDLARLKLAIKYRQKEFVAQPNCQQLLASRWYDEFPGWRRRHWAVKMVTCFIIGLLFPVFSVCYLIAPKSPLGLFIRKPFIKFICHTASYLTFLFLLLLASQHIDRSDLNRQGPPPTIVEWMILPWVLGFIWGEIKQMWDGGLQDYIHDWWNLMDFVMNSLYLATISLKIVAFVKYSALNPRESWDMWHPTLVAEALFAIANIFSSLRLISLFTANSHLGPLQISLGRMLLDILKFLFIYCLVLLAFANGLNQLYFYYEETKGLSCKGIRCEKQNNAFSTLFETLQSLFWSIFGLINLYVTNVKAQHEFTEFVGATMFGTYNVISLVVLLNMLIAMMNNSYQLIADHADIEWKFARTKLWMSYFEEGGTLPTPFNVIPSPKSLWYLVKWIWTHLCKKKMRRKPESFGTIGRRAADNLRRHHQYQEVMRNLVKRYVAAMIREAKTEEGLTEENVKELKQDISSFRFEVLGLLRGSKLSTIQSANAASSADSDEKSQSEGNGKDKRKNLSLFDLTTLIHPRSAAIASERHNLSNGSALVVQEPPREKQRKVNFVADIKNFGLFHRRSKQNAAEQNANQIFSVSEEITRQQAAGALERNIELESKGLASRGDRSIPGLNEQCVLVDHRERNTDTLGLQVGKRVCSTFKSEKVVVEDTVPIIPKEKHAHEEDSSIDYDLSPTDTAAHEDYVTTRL
# [2] = target: T1, Short transient receptor potential channel 4; experiment: TRPC4 inhibition under acetylcholine activation, SAR follow-up, cell-based, acetylcholine stimulus, HEK293 TRPC4, Fluo-4 (AID 492996); assay type: functional
# [3] = target: T1, Short transient receptor potential channel 4; experiment: SAR Analysis for the identification of selective inhibits of the transient receptor potential cation channel C4 (TRPC4): Automated Electrophysiology. [Related pubchem assays (depositor defined):AID2256]; assay type: functional
# [4] = target: Short transient receptor potential channel 6 (Mus musculus, UniProt Q61143); experiment: TRPC6 inhibition potency of TRPC4 inhibitor analogs, dose response, selectivity assay for selective TRPC4 inhibitor project, HEK293 cells, membrane potential dye, IC50 (AID 492987); assay type: functional, cell-based
# Phosphomannomutase 2 = Phosphomannomutase 2 (Homo sapiens, UniProt O15305); experiment: Counter screen SAR assay for PMM2 inhibitors via a fluorescence intensity assay. [Related pubchem assays (depositor defined):AID1545, AID1574]
# [5] = target: T2, Mannose-6-phosphate isomerase (Homo sapiens, UniProt P34949); experiment: PMI enzyme inhibitors, confirmation, biochemical, fluorescence intensity (AID 1535)
# T2 sequence (P34949 whole entry): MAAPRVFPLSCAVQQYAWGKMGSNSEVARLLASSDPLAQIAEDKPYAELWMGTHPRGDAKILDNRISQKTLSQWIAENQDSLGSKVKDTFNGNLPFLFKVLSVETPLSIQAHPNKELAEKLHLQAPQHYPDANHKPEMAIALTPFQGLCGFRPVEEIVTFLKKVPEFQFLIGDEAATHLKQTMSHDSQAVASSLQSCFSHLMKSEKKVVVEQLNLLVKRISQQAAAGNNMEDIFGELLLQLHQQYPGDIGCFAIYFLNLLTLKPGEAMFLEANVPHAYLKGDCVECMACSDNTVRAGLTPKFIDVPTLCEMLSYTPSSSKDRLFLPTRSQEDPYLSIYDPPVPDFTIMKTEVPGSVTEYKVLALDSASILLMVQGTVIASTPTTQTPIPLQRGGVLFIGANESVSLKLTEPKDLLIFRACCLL
# [6] = target: T3, Voltage-gated inwardly rectifying potassium channel KCNH2 (Homo sapiens, UniProt Q12809); conditions: Potency;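 also: confirmatory quantitative high-throughput screen measuring inhibition of hERG channel activity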
# T3 sequence (Q12809 whole entry): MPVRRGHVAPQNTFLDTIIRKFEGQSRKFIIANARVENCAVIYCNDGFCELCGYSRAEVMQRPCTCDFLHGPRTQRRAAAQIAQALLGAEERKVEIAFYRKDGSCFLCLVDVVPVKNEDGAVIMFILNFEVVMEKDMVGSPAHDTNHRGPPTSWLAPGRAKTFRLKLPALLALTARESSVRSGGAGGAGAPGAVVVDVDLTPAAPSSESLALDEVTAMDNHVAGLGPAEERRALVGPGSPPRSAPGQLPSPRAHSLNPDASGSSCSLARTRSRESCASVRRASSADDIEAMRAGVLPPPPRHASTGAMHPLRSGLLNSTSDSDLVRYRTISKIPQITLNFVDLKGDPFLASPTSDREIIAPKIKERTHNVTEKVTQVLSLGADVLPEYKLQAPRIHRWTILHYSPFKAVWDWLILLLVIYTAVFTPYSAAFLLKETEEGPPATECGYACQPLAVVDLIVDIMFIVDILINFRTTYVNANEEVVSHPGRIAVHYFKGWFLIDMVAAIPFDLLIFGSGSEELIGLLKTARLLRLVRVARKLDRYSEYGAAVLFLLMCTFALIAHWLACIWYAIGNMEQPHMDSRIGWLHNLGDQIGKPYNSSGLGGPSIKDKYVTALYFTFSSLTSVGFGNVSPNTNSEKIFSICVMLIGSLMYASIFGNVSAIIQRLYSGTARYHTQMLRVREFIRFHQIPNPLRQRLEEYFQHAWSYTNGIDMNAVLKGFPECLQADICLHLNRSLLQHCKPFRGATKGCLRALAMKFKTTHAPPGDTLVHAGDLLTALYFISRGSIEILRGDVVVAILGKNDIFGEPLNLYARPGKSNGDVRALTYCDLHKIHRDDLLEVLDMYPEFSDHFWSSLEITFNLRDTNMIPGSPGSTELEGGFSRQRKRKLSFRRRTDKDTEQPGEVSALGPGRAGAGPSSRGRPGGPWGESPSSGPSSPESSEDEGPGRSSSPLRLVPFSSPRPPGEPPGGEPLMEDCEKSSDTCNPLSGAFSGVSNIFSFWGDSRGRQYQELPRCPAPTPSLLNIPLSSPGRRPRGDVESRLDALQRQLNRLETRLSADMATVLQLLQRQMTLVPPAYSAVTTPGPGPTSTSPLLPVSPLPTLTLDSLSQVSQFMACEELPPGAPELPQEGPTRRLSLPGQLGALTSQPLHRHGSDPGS
# [7] = target: Dual specificity protein kinase CLK1 (Homo sapiens, UniProt P49759); experiment: CLK1 kinase inhibitors, off-target check, dose response, selectivity assay for Dyrk1A inhibitor project, biochemical, cherry-picked samples (AID 588811)
# Chain of Dual specificity protein kinase CLK1 (P49759 whole entry): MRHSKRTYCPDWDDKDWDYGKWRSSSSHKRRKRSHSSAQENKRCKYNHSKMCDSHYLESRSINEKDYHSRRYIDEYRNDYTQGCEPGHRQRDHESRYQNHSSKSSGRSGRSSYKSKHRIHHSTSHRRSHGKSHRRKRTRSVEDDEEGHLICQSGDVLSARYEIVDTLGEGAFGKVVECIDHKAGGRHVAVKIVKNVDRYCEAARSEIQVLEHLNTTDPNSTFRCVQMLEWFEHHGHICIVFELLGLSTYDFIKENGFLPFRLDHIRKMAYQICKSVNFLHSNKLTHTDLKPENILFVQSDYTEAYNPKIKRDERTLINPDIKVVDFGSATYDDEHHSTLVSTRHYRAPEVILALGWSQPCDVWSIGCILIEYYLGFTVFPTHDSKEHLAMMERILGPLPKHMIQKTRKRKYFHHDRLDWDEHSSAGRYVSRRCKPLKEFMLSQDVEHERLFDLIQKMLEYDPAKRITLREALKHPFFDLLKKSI
# [8] = target: Luciferin 4-monooxygenase (Photinus pyralis, UniProt P08659); experiment: firefly luciferase enzyme inhibitors, dose response, biochemical, luminescence (AID 1891)
# Chain of Luciferin 4-monooxygenase (P08659 whole entry): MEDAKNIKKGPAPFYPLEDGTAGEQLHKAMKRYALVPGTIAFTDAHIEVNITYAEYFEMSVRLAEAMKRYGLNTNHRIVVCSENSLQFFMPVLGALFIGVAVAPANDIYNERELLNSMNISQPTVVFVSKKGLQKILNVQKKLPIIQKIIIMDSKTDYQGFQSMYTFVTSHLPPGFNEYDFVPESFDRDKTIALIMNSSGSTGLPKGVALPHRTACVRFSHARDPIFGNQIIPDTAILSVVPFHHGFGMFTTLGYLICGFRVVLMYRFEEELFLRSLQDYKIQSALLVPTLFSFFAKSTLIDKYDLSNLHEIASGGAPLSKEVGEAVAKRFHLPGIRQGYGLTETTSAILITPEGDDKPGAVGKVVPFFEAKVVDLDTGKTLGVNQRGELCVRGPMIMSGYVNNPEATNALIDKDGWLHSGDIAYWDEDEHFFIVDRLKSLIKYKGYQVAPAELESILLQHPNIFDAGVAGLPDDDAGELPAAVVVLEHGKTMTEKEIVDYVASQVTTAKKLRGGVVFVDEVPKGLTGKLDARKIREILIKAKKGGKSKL
# Cytochrome P450 2C19 = Cytochrome P450 2C19 (Homo sapiens, UniProt P33261); experiment: Cytochrome panel assay with activity outcomes. Panel member name: p450-cyp2c19 Compounds with AC50 equal or less than 10 uM are considered active; assay type: functional; conditions: read-out: AC50
# fMet-Leu-Phe receptor = fMet-Leu-Phe receptor (Homo sapiens, UniProt P21462); experiment: FPR ligands, dose response (AID 519); assay type: functional
# Cytochrome P450 2D6 = Cytochrome P450 2D6 (Homo sapiens, UniProt P10635);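 also: CYP2D6 member of a cytochrome P450 panel assay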
# [9] = Luminescence Cell-Based Dose Confirmation HTS to Identify Inhibitors of Platelet Dense Granule Release. [Related pubchem assays: 1663 (Primary HTS), 1678 (Summary of Project)]; assay type: functional
# [10] = target: Potassium voltage-gated channel subfamily KQT member 2 (Rattus norvegicus, UniProt O88943); experiment: KCNQ2 channel activators, analog series, SAR follow-up, automated patch clamp, KCNQ2-CHO cells (AID 493113); assay type: functional
# Chain of Potassium voltage-gated channel subfamily KQT member 2 (O88943 whole entry): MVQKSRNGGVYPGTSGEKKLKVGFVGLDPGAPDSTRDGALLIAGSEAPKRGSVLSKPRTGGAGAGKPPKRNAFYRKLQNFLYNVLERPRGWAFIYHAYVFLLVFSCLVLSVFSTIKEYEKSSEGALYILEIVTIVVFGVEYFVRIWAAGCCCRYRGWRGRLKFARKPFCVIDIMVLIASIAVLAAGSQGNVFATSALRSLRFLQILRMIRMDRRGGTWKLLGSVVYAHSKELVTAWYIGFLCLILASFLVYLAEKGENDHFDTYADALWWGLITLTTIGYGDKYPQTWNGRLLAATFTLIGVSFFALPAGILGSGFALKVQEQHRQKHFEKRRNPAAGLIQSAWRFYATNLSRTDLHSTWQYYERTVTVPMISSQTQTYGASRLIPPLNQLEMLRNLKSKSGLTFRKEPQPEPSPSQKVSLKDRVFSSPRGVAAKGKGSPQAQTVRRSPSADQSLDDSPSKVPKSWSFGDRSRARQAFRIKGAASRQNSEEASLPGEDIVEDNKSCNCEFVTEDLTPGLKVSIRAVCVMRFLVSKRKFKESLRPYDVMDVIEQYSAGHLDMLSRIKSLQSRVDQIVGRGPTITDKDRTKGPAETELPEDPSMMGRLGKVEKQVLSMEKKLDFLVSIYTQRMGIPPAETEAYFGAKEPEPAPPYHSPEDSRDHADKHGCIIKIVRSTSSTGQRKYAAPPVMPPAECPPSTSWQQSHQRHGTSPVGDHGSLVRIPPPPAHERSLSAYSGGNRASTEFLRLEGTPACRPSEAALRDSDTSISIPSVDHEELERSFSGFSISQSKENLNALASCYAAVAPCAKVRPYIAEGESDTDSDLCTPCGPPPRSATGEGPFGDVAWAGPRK
# [11] = target: Dual specificity protein phosphatase 3 (Homo sapiens, UniProt P51452); experiment: SAR VHR1 Fluorescent Assay for In Vitro dose response studies Set 3. [Related pubchem assays (depositor defined):AID1654, AID1661, AID1878]; assay type: functional
# Chain of Dual specificity protein phosphatase 3 (P51452 whole entry): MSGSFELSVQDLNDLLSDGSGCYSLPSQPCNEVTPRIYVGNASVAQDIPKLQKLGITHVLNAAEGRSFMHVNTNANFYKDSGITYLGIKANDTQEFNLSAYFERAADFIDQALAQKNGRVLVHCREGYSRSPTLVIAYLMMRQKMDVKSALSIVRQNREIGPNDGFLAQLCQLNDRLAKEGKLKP
# [12] = Luminescence Cell-Based Dose Retest to Confirm Inhibitors of Cancer Stem Cells. [Related pubchem assays (depositor defined):AID2717, AID2721]; assay type: functional; conditions: Homo sapiens
# [13] = cytotoxicity in HMLE control line with eGFP shRNA, dose response, counter-screen for HMLE_sh_ECad selective toxicity project, cell-based, HMLE_sh_eGFP, luminescence (AID 463074); assay type: functional, Homo sapiens;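 also: HMLE human mammary epithelial cells expressing control shRNA against eGFP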
# Beta-galactosidase = Beta-galactosidase (Escherichia coli, UniProt Q8VNN2); assay type: functional
# [14] = HepG2 cell cytotoxicity, dose response, cytotoxicity control for Shn3 inhibitor project, CellTiter-Glo, cherry-picked (AID 624134); assay type: functional, cell-based
# [15] = target: T4, Kappa-type opioid receptor (Homo sapiens, UniProt P41145); assay type: functional
# T4 sequence (P41145 whole entry): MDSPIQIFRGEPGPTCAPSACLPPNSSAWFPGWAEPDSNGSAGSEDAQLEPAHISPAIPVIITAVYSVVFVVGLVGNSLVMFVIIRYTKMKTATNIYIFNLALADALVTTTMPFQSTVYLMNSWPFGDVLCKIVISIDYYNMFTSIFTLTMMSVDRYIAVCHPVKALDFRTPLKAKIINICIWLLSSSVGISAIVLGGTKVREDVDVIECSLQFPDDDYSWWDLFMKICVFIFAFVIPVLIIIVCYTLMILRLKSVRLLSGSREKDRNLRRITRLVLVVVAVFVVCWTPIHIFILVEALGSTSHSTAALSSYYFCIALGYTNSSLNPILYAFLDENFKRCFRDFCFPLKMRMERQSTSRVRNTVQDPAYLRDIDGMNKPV
# [16] = target: E3 ubiquitin-protein ligase Mdm2 (Homo sapiens, UniProt Q00987); experiment: enhancers of MDM2-luciferase reporter signal, concentration-effect titration, project on inhibitors of MDM2 ubiquitin ligase, cellular assay, luminescent readout, 384-well plate format (AID 1394); assay type: functional;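 also: MDM2 E3 inhibitors raise luminescence so EC50 is for signal enhancement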
# Chain of E3 ubiquitin-protein ligase Mdm2 (Q00987 whole entry): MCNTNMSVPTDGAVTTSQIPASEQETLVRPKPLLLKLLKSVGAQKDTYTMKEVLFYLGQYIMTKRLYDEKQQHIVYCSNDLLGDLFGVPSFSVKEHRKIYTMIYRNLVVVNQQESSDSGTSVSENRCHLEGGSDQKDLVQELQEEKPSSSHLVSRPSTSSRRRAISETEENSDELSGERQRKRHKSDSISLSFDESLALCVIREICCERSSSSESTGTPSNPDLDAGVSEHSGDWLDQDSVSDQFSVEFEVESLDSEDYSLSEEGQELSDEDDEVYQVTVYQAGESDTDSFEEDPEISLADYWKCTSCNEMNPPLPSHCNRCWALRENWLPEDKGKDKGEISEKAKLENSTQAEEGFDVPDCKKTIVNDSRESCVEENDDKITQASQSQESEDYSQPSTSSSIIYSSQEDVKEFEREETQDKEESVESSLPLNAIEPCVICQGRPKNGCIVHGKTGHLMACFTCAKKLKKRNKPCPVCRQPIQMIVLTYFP
# Vero = experiment: cells; assay type: functional; conditions: Chlorocebus sabaeus
# Streptococcus = experiment: Group A Streptococcus viability loss, dose response, counter-screen for streptokinase expression inhibitor project, luminescence, BacTiterGlo (AID 1915); assay type: functional, organism-based; conditions: read-out: EC50;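 also: potency for reduction of bacterial viability or growth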
# [17] = target: T4, Kappa-type opioid receptor; assay type: functional; remark: listed apart in the source
# [18] = target: T3, Voltage-gated inwardly rectifying potassium channel KCNH2; experiment: hERG protection from proarrhythmic block, potency, dose response, cell-based, thallium flux (AID 2121); assay type: ADME
# [19] = target: T5, Heat shock factor protein 1 (Mus musculus, UniProt P38532); experiment: HSF1 potentiators in luciferase reporter cells, confirmation, cell-based, NIH3T3, luminescence, dose retest (AID 435004); assay type: functional;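 also: stress induced by proteasome inhibitor MG132 added 30 min after compound; luciferase reporter driven by HSF1 response element in NIH3T3 cells; actives raise luminescence as potentiators of the MG132 stress response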
# T5 sequence (P38532 whole entry): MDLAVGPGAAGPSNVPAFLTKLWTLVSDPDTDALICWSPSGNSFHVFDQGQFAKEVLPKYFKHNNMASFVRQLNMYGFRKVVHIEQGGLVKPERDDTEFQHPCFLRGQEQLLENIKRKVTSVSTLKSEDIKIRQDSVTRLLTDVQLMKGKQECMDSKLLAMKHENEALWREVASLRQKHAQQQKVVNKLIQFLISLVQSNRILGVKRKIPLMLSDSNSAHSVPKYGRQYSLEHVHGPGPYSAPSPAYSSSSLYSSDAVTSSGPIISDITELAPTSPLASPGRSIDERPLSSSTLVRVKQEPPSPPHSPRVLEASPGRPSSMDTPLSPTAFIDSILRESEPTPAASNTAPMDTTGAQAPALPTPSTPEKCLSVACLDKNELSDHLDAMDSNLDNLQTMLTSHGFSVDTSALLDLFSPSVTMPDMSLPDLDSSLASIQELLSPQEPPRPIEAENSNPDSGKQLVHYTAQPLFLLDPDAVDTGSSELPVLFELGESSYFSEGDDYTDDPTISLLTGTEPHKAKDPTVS
# [20] = target: Induced myeloid leukemia cell differentiation protein Mcl-1 (Homo sapiens, UniProt Q07820); assay type: functional
# Chain of Induced myeloid leukemia cell differentiation protein Mcl-1 (Q07820 whole entry): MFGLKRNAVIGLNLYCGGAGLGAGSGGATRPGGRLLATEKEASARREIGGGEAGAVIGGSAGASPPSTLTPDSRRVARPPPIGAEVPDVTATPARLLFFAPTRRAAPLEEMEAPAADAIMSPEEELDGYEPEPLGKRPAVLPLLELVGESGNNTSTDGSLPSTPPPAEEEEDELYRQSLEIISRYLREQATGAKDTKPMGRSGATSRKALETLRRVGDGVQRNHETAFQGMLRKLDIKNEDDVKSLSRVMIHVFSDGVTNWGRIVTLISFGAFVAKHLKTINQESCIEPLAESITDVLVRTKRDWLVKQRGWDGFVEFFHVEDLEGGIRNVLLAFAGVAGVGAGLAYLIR
# [21] = target: T6, Delta-type opioid receptor (Homo sapiens, UniProt P41143); experiment: HTS Image-Based Screen for Agonists of the DOR Receptor. [Related pubchem assays (depositor defined):AID1777, AID1786, AID2133]; assay type: functional
# T6 sequence (P41143 whole entry): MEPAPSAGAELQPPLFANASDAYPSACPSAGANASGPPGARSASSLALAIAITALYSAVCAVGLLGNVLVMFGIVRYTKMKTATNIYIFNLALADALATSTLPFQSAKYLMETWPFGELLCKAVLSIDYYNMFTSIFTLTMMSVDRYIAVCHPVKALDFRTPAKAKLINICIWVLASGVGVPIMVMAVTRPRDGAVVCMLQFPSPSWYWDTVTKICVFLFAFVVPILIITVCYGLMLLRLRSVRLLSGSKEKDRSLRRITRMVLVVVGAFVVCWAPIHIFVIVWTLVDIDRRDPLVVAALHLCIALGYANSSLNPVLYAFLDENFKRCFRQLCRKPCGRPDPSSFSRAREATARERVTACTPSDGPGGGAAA
# Mu-type opioid receptor = Mu-type opioid receptor (Homo sapiens, UniProt P35372); experiment: HTS Image-Based Screen for Agonists of the MOR Receptor. [Related pubchem assays (depositor defined):AID1777, AID1785, AID1786, AID2133]; assay type: functional;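 also: imaging of beta-arrestin GFP recruitment into spots after receptor activation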
# [22] = control 3'UTR Renilla luciferase suppression, dose response, counter-screen for Shn3 inhibitor project, cell-based, Clone20-Shn3RL, cherry-picked (AID 624133); assay type: functional
# [23] = system: Streptococcus sp. 'group A'; experiment: growth inhibition of control SK(-) GAS strain, dose response, counter-screen for streptokinase expression inhibitor project, luminescence, kanamycin, BacTiterGlo, confirmation (AID 1900); assay type: functional, organism-based
# [24] = Shn3 3'UTR reporter inhibitors, dose response, cell-based, Clone20 osteoblasts, firefly luciferase, cherry-picked (AID 624132); assay type: functional;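 also: firefly luciferase luminescence from reporter carrying the Shn3 3'UTR in osteoblasts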
# [25] = target: T6, Delta-type opioid receptor; experiment: HTS Image-Based Screen for Antagonists of the DOR Receptor. [Related pubchem assays (depositor defined):AID1777, AID1785, AID1786, AID2133]; assay type: functional
# INS1 = experiment: protection of INS-1E cells from cytokine death, dose response, ATP luminescence, dry powder (AID 488844); assay type: functional, cell-based; conditions: Rattus norvegicus
compound,measurement,setting,value
Cc1cc(N2CCC[C@@H]2C)nc2ccccc12,IC50,[1],2.5 µM (active)
same,IC50,[2],17.1 µM (active)
same,IC50,[3],4.26 µM (active)
same,IC50,[4],11.8 µM (active)
Clc1nss/c1=N\c1ccccc1Br,IC50,Phosphomannomutase 2,57.3 µM (active)
same,IC50,[5],11.9 µM (active)
O=C(Cc1ccc(Cl)c(Cl)c1)N1CCCCC1CN1CCCC1 (centres undefined),AC50,[6],25.1 µM (inconclusive)
CN(Cc1cccs1)c1ncnc2ccc(-c3ccc4c(c3)OCO4)cc12,AC50,[7],< 0.00195 µM (active)
Cc1ccc(C2C(C(=O)c3sc(C)nc3C)=C(O)C(=O)N2CCN2CCOCC2)o1 (centres undefined),EC50,[8],> 112 µM (not active)
same,AC50,Cytochrome P450 2C19,0.00562 µM (inconclusive)
same,Ki,fMet-Leu-Phe receptor,> 66.7 µM (inactive)
same,AC50,Cytochrome P450 2D6,inconclusive
same,EC50,[9],> 112 µM (not active)
O=C(Nc1ccc(Cl)cc1Cl)C1CC2CCC1C2 (centres undefined),EC50,[10],1.52 µM (active)
CC(C)(C)c1ccc(C(=O)NCc2nnc(SCC(=O)Nc3nc4ccccc4s3)n2-c2cccc(Cl)c2)cc1,IC50,[11],> 66 µM (inactive)
Cc1ccc(OCC(=O)NNC(=S)NC(=O)c2cccs2)c(C)c1,AC50,[12],9.13 µM (active)
same,AC50,[13],37.8 µM (active)
N=C1S/C(=C\c2ccc(-c3cccc(Cl)c3)o2)C(=O)N1c1nccs1,EC50,Beta-galactosidase,> 31.5 µM (inactive)
same,AC50,[14],13.7 µM (active)
same,IC50,[15],5.72 µM (active)
same,EC50,[16],0.01 µM (not active)
same,CC50,Vero,4.5 µM (active)
same,EC50,Streptococcus,0.228 µM (active)
same,pIC50,[17],< 4.49
same,EC50,[18],0.42 µM (active)
same,EC50,[19],5.39 µM (active)
same,IC50,[20],0.745 µM (active)
same,EC50,[21],> 32 µM (inactive)
same,EC50,Mu-type opioid receptor,> 32 µM (inactive)
same,AC50,[22],6.17 µM (active)
same,EC50,[23],< 0.06 µM (active)
same,AC50,[24],2.82 µM (active)
same,IC50,[25],> 32 µM (inactive)
COc1ccc(S(=O)(=O)N(C)C[C@@H]2Oc3c(NS(=O)(=O)c4ccc(Cl)cc4)cccc3C(=O)N([C@@H](C)CO)C[C@H]2C)cc1,AC50,INS1,> 260 µM (inactive)
